Data set [1] is described as follows: Retention time of the compound by HPLC method. In kind it is physicochemical.
Data set [2] is described as follows: Cytotoxicity against human DLD1 cells assessed as cell viability after 48 hrs by MTT assay. The class given is functional, cell-based. The conditions noted are these: DLD-1, 48 h. (In general: Tetrazolium assays rely on reduction of a dye to a coloured formazan, in cell work by metabolically active cells.)
Data set [3] relates to HCT-116. In words: Cytotoxicity against human HCT116 cells assessed as cell viability after 48 hrs by MTT assay. The class given is functional, cell-based. The conditions noted are these: HCT-116, 48 h.
The nature of data set [4]: Cytotoxicity against human HCT8 cells assessed as cell viability after 48 hrs by MTT assay. In kind it is functional, cell-based. The settings on record: HCT-8, 48 h.

pIC50: −log10 of the molar value.

In ChEMBL document CHEMBL3621166, “Synthesis, Structure-Activity Relationship, and Mechanistic Investigation of Lithocholic Acid Amphiphiles for Colon Cancer Therapy” (Medchemcomm, 2015) one finds Retention_time and IC50 data, which are given here for five compounds.

`COC(=O)CC[C@@H](C)[C@H]1CC[C@H]2[C@@H]3CC[C@@H]4C[C@H](OC(=O)CN5CCSCC5)CC[C@]4(C)[C@H]3CC[C@]12C.Cl` returned a Retention_time in data set [1] of 28.63 min. Besides, the figures for the pIC50 in data set [2], in data set [3] and in data set [4] were 3.79, 4.06 and 3.88, respectively.
In data set [1], `COC(=O)CC[C@@H](C)[C@H]1CC[C@H]2[C@@H]3CC[C@@H]4C[C@H](OC(=O)C[n+]5ccccc5)CC[C@]4(C)[C@H]3CC[C@]12C.[Cl-]` showed a Retention_time of 7.84 min. The figures for the pIC50 in data set [2], in data set [3] and in data set [4] were 4.45, 4.58 and 4.45, respectively.
Consider `COC(=O)CC[C@@H](C)[C@H]1CC[C@H]2[C@@H]3CC[C@@H]4C[C@H](OC(=O)CN5CCNCC5)CC[C@]4(C)[C@H]3CC[C@]12C`, for which the negative-log IC50 (pIC50) (usually −log10 of the IC50, conventionally taken in molar units) is 3.93 in data set [2], 3.99 in data set [3] and 3.94 in data set [4].
For the compound `COC(=O)CC[C@@H](C)[C@H]1CC[C@H]2[C@@H]3CC[C@@H]4C[C@H](OC(=O)C[N+]5(C)CCCC5)CC[C@]4(C)[C@H]3CC[C@]12C.[Cl-]`, in data set [1], the Retention_time is 8.23 min. Moreover, the negative logarithm of the IC50 (pIC50) is 4.77 in data set [2], 4.75 in data set [3] and 4.44 in data set [4].
For `COC(=O)CC[C@@H](C)[C@H]1CC[C@H]2[C@@H]3CC[C@@H]4C[C@H](OC(=O)CN)CC[C@]4(C)[C@H]3CC[C@]12C`, the pIC50 is 4.53 in data set [2], 4.44 in data set [3] and 4.51 in data set [4].
